# In US20110039763A1, “TARGETED ANTIMICROBIAL MOIETIES” (C3 JIAN, INC., priority 2009, published 2011):
# “Also recorded” adds a separate entry of the source.
# Tested on: microorganisms
# Assay: Targeting peptide binding to target microorganisms (Tables 3, 10, 12)
# Conditions: microorganism(s) the targeting peptide binds; binding in aqueous buffers varied with peptide solubility, preferably 1x PBS
row,Substance,Target(s)
1,PF-172 (LTGVRRPWRAPWAGTSGWALR; Peptide with targeting and/or antimicrobial activity),S. epidermidis and M. luteus and E. coli and P. aeruginosa and MRSA and E. faecalis and C. jejuni
2,PF-174 (RGGDSPARRRPGLAGPGGPG; Peptide with targeting and/or antimicrobial activity),S. epidermidis; also recorded: P. aeruginosa; also recorded: C. jeikeium
3,PF-177 (VTSEPGIAHDIRLLPRAAAFR; Peptide with targeting and/or antimicrobial activity),M. luteus and MRSA and E. faecalis and C. jeikeium
4,PF-181 (GIAPRRNEWGAVGGR; Peptide with targeting and/or antimicrobial activity),S. epidermidis and M. luteus and E. coli and MRSA and E. faecalis and C. jeikeium
5,PF-182 (LPATRDKTRVPASVAGAP; Peptide with targeting and/or antimicrobial activity),S. epidermidis; also recorded: M. luteus; also recorded: E. coli; also recorded: E. faecalis; also recorded: C. jeikeium
6,PF-183 (KPGISVENRQ; Peptide with targeting and/or antimicrobial activity),S. epidermidis and M. luteus and E. coli and C. albicans and MRSA and E. faecalis and C. jeikeium
7,PF-184 (LIADRHIRA; Peptide with targeting and/or antimicrobial activity),S. epidermidis and M. luteus and E. coli and P. aeruginosa and C. albicans and MRSA and C. jeikeium
8,PF-185 (RPAQARQGPGGLIADRHIRA; Peptide with targeting and/or antimicrobial activity),E. coli; also recorded: P. aeruginosa
9,PF-187 (EIQKIAKGVSGQVYGPSRQITISKKR; Peptide with targeting and/or antimicrobial activity),S. epidermidis and M. luteus and E. coli and MRSA
10,PF-189 (GNLTRSREAARATQ; Peptide with targeting and/or antimicrobial activity),S. epidermidis and M. luteus and C. albicans and MRSA and E. faecalis and C. jejuni
11,PF-193 (PPHCPPGHAKKGWC; Peptide with targeting and/or antimicrobial activity),S. epidermidis and M. luteus and E. coli and MRSA and E. faecalis and C. jejuni
12,PF-194 (MKGNKLATAHEQPVKNSAPPL; Peptide with targeting and/or antimicrobial activity),C. jeikeium
13,PF-195 (EMAEGSADDRLRKTPRDC; Peptide with targeting and/or antimicrobial activity),S. epidermidis; also recorded: M. luteus; also recorded: E. faecalis; also recorded: C. jeikeium
14,PF-197 (CNALLRRGHPPSAL; Peptide with targeting and/or antimicrobial activity),S. epidermidis; also recorded: M. luteus; also recorded: C. albicans; also recorded: E. faecalis; also recorded: C. jejuni
15,PF-200 (GIELKSLIMAQIERWRQA; Peptide with targeting and/or antimicrobial activity),S. epidermidis and M. luteus and MRSA and E. faecalis and C. jeikeium
16,PF-201 (GCRPASLSDADPDGR; Peptide with targeting and/or antimicrobial activity),S. epidermidis; also recorded: M. luteus; also recorded: E. coli; also recorded: C. albicans; also recorded: E. faecalis; also recorded: C. jeikeium; also recorded: C. jejuni
17,PF-202 (ALNRASLRLALGE; Peptide with targeting and/or antimicrobial activity),S. epidermidis and M. luteus and E. coli and MRSA and E. faecalis and C. jeikeium and C. jejuni
18,PF-206 (KLRSASKKSLQEKSCGIMPEKPAG; Peptide with targeting and/or antimicrobial activity),M. luteus; also recorded: C. albicans; also recorded: C. jeikeium; also recorded: C. jejuni
19,PF-207 (AAGCRDLGSLSSLVTNPS; Peptide with targeting and/or antimicrobial activity),M. luteus; also recorded: C. jeikeium
20,PF-210 (EREDGCDAMPLP; Peptide with targeting and/or antimicrobial activity),S. epidermidis and P. aeruginosa and C. albicans and MRSA and E. faecalis and C. jeikeium and C. jejuni
21,PF-213 (MTTGVDFIIEKV; Peptide with targeting and/or antimicrobial activity),S. epidermidis
22,PF-214 (GHLRVCWVFSASLLTPFRSATLI; Peptide with targeting and/or antimicrobial activity),S. mutans; also recorded: S. epidermidis; also recorded: M. luteus; also recorded: E. coli; also recorded: P. aeruginosa; also recorded: A. baumannii
23,PF-216 (ESVDKITEALEEDGFPAKVQ; Peptide with targeting and/or antimicrobial activity),S. mutans; also recorded: E. coli
24,PF-217 (DWEFTHKTIPQKK; Peptide with targeting and/or antimicrobial activity),S. mutans
25,PF-218 (SETPEKPVGTFFYSIYYKIIL; Peptide with targeting and/or antimicrobial activity),S. epidermidis; also recorded: M. luteus; also recorded: P. aeruginosa; also recorded: A. baumannii

row,Substance,Target(s)
1,PF-219 (FLALAVIAGLFKVILIYAAPYLK; Peptide with targeting and/or antimicrobial activity),S. epidermidis; also recorded: M. luteus; also recorded: P. aeruginosa; also recorded: A. baumannii
2,PF-221 (VFDNIDINF; Peptide with targeting and/or antimicrobial activity),S. epidermidis; also recorded: M. luteus; also recorded: P. aeruginosa
3,PF-223 (VKFCIECQTKLERKRR; Peptide with targeting and/or antimicrobial activity),S. epidermidis; also recorded: M. luteus; also recorded: A. baumannii
4,PF-225 (MNCASPEFKKLMELYK; Peptide with targeting and/or antimicrobial activity),S. epidermidis
5,PF-228 (NQLGSQAFAQL; Peptide with targeting and/or antimicrobial activity),S. mutans
6,PF-229 (DPILIQIGFTRFALRKAEAEKIEIQVEEGVPA; Peptide with targeting and/or antimicrobial activity),S. epidermidis; also recorded: M. luteus; also recorded: P. aeruginosa; also recorded: A. baumannii
7,PF-230 (EDKPTNTIQEIKPVKWQ; Peptide with targeting and/or antimicrobial activity),S. mutans
8,PF-231 (AVRDFKKSVREEDEAASLNSPRTIDAQVKTSESTSVKS; Peptide with targeting and/or antimicrobial activity),S. mutans
9,PF-232 (FDQLYALEREGKLDELLA; Peptide with targeting and/or antimicrobial activity),S. epidermidis; also recorded: M. luteus
10,PF-236 (KEIRTATVAELNAKRRLTSAEQALAEVS; Peptide with targeting and/or antimicrobial activity),S. mutans; also recorded: S. epidermidis; also recorded: E. coli; also recorded: C. albicans; also recorded: S. pneumoniae; also recorded: E. faecalis
11,PF-237 (YVKPKVGVHE; Peptide with targeting and/or antimicrobial activity),S. epidermidis
12,PF-238 (RNAVVVTEATFPKYEEEITNYLNRRFGEDWSLKLEKCSVA; Peptide with targeting and/or antimicrobial activity),S. mutans and S. epidermidis and E. coli and P. aeruginosa and C. albicans and MRSA and S. pneumoniae and E. faecalis
13,PF-239 (PKHNVVTGVSVDLDYKP; Peptide with targeting and/or antimicrobial activity),S. mutans; also recorded: E. coli
14,PF-240 (RITEVPPDEHSDR; Peptide with targeting and/or antimicrobial activity),S. mutans; also recorded: E. coli
15,PF-242 (KLFEDPLIKSKAVENFQTTWHEQCLAKELAKNM; Peptide with targeting and/or antimicrobial activity),S. mutans; also recorded: E. coli
16,PF-244 (HMRTISYLLAFAKFSLFIPPKQSLKRL; Peptide with targeting and/or antimicrobial activity),S. epidermidis; also recorded: M. luteus; also recorded: P. aeruginosa; also recorded: A. baumannii
17,PF-245 (MNDVKPVVQPKQTLKAFLVQLLSVRAGVYIKQNNQLPKTKG; Peptide with targeting and/or antimicrobial activity),S. epidermidis; also recorded: M. luteus; also recorded: P. aeruginosa; also recorded: A. baumannii
18,PF-246 (QPDEKAEFFDPSLDKVYRHPTFYHIPDGIEHM; Peptide with targeting and/or antimicrobial activity),S. mutans
19,PF-247 (ETAASETH; Peptide with targeting and/or antimicrobial activity),S. epidermidis
20,PF-248 (ILSKLWFWMINSLGVVLLVSYWLLAKWGVA; Peptide with targeting and/or antimicrobial activity),S. mutans; also recorded: S. epidermidis; also recorded: M. luteus; also recorded: E. coli; also recorded: P. aeruginosa; also recorded: A. baumannii
21,PF-253 (VRDDDS; Peptide with targeting and/or antimicrobial activity),S. epidermidis; also recorded: M. luteus
22,PF-254 (FIYGVGFVPHFWLWKWLFSPWIAWPLMLLGYYIWFLT; Peptide with targeting and/or antimicrobial activity),S. epidermidis; also recorded: M. luteus; also recorded: P. aeruginosa; also recorded: A. baumannii
23,PF-256 (EYFKQVYVKNEKIYSFWICKDLSPKEAAKRAEDILVKLK; Peptide with targeting and/or antimicrobial activity),S. epidermidis
24,PF-259 (LPFSKIGRRVSYKKKDVLKYEQSKTVLNTAQLATV; Peptide with targeting and/or antimicrobial activity),S. epidermidis; also recorded: P. aeruginosa; also recorded: A. baumannii
